# Measurements reported in US20030170310A1, “Tasteless, directly compressible, fast-dissolving complexes and pharmaceutical formulations thereof” (priority 2002, published 2003).
# Assay: PH of drug and complex
# Type: physicochemical
structure (smiles),measurement,value
"CC(C)(C(=O)O)c1ccc(C(O)CCCN2CCC(C(O)(c3ccccc3)c3ccccc3)CC2)cc1.Cl (racemic) [Fexofenadine Hydrochloride, (±)-4-[1-hydroxy-4-[4-(hydroxydiphenylmethyl)-1-piperidinyl]-butyl]-α,α-dimethylbenzene acetic acid hydrochloride]",PH,2.25-2.75
